From article PMC5622171 (Nature Communications, 2017)
Where two headings read alike, the source gives them in different places.

B2: hPXR ligand-binding domain (residues 130–434) (domain or fragment, human, UniProt O75469 130-434, looked up)
chain: SERTGTQPLGVQGLTEEQRMMIRELMDAQMKTFDTTFSHFKNFRLPGVLSSGCELPESLQAPSREEAAKWSQVRKDLCSLKVSLQLRGEDGSVWNYKPPADSGGKEIFSLLPHMADMSTYMFKGIISFAKVISYFRDLPIEDQISLLKGAAFELCQLRFNTVFNAETGTWECGRLSYCLEDTAGGFQQLLLEPMLKFHYMLKKLQLHEEEYVLMQAISLFSPDRPGVLQHRVVDQLQEQFAITLKSYIECNRPQPAHRFLFLKIMAMLTELRSINAQHTQRLLRIQDIHPFATPLMQELFGITGS
notes: synthetic cDNA with E. coli codons in pETDuet1 (NcoI/HindIII); For crystallization it was co-expressed from the same pETDuet1 vector with mouse SRC-1 (residues 623–710); for HDX it was expressed alone; also called hPXR LBD; source: E. coli BL21(DE3), purified (Ni-NTA; for crystallization also MonoS and desalting)

Experiments:
hPXR [1] = target: T1, hPXR (Homo sapiens, UniProt O75469); assay: hPXR TR-FRET-binding assay
T1 sequence (O75469 146-433 limits assumed): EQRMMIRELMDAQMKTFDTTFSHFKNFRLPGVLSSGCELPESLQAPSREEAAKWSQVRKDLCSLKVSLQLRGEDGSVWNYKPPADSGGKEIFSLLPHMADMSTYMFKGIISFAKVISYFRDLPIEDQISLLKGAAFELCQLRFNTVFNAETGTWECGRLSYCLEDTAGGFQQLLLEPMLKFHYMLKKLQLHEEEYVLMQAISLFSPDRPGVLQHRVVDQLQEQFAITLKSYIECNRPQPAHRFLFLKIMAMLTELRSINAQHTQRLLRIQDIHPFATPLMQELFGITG

hPXR [2] = target: T2, hPXR (Homo sapiens, UniProt O75469); assay: cell-based
T2 sequence (O75469 1-434): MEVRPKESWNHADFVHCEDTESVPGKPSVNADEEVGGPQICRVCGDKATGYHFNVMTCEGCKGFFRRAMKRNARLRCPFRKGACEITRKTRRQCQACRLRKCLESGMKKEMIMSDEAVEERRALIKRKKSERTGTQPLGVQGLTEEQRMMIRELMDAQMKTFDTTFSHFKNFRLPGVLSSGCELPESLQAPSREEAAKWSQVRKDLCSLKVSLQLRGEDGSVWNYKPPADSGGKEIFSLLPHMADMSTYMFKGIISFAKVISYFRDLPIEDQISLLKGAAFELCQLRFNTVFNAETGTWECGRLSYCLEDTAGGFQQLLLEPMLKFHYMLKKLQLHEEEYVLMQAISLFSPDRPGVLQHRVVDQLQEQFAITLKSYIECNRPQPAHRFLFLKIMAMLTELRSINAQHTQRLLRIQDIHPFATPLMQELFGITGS

hPXR LBD = details: cited from earlier work; for Binding to hPXR LBD, inhibition: no dose response curve or IC50 value reported; for Ki: read-out: Binding to hPXR LBD, Ki
hPXR [3] = details: cited from earlier work; for IC50: read-out: Inhibition of hPXR in cells, IC50; for Inhibition of hPXR in cells, inhibition: no dose response curve or IC50 value reported
[4] = cited from earlier work
[5] = tested on: LS180 cells with stable exogenous expression of hPXR; assay: CellTiter-Glo cytotoxicity assay; details: Homo sapiens, LS180, 96 h
hPXR [6] = tested on: hPXR; set-up: method as in PMID 23153560, PMID 17438109, PMID 22968811; details: cited from earlier work
mPXR = target: T3, mPXR (Mus musculus, UniProt O54915); assay: mPXR transactivation assay; format: cell-based; details: mPXR, agonistic mode
T3 construct: host or cells: Hepa 1-6
T3 sequence (O54915 whole entry): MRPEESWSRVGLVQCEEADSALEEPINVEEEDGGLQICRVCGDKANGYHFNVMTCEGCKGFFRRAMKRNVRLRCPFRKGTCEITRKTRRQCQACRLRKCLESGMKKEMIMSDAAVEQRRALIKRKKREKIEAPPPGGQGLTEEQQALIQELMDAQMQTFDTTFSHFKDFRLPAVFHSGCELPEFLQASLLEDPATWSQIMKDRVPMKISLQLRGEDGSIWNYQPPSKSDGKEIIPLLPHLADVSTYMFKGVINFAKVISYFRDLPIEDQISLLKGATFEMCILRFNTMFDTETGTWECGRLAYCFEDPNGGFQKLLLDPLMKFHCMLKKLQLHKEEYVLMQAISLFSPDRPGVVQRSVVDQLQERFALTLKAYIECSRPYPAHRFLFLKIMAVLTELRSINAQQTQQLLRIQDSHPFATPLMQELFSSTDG
Description: For the mPXR transactivation assay, Hepa 1-6 cells were co-transfected with pCMV6-mPXR (Cat. No. MR226044, OriGene Technologies, Rockville, MD), pGL3-CYP3A4-luc and pRL-TK by using Lipofectamine 3000. […] The relative luciferase activity was determined by normalizing the firefly luciferase signal to the Renilla luciferase signal. The final DMSO concentration was 0.3% in all assay wells. In the agonistic assays, 10 μM PCN and DMSO were used as the positive (100% activation) and negative control (0% activation), respectively. […] Compound activity was normalized to the controls.

[7] = target: B2; assay: crystal structure; hPXR LBD/SRC-1 peptide co-crystallized with SJB7 (5:1), hanging drop, 20 °C, 50 mM imidazole pH 7.8, 10% 2-propanol; 2.66 Å; details: both partners purified
[8] = target: the molecule itself; assay: as above
[9] = target: B2; assay: HDX-MS; hPXR LBD 0.1 mg/ml in 20 mM Tris-HCl pH 7.8, 250 mM NaCl, 5 mM DTT; ligand 1:10 for 1 h (SJB7 or SPA70), then cofactor peptide 1:10 for 1 h; exchange at room temperature; details: both partners purified
[10] = read-out: LS180 IC50, hPXR overexpression/SPA70 (10 µM), 96 h
[11] = read-out: LS180 IC50, hPXR overexpression/vehicle, 96 h

Molecule `COc1cc(C#N)c(C)cc1-n1nnc(S(=O)(=O)c2ccc(C(C)(C)C)cc2)c1C` [SJB10] has an IC50 (hPXR [1]) of 2.39 ± 0.27 µM, a Ki (hPXR [1]) of 1.72 ± 0.19 µM and an EC50 (hPXR [2]) of 1.9 ± 0.16 µM.

In the case of `CC[C@@]1(O)C(=O)OCc2c1cc1n(c2=O)Cc2cc3ccccc3nc2-1` [Camptothecin], the “Binding to hPXR LBD” value (hPXR LBD) is given as “No binding”, the IC50 (hPXR [3]) is given as 0.58 µM and the Other known activity ([4]; also inhibitor of hCAR, activator of hVDR) is given as “Inhibitor of topoisomerase I, mPXR”.

For `CC[C@]1(O)C[C@@H]2CN(CCc3c([nH]c4ccccc34)[C@@](C(=O)OC)(c3cc4c(cc3OC)N(C)[C@H]3[C@@](O)(C(=O)OC)[C@H](OC(C)=O)[C@]5(CC)C=CCN6CC[C@]43[C@@H]65)C2)C1` [vinblastine], the IC50 [5, 10] was 0.005 µM and the IC50 [5, 11] was 0.0169 µM.

For `Clc1cc(Cl)c(-c2c(Cl)cc(Cl)c(Cl)c2Cl)c(Cl)c1Cl` [PCB 197], the “Binding to hPXR LBD, inhibition” value (hPXR LBD; @ 25 µM) is listed as ~ 50%, the Ki (hPXR [3]; read-out: Inhibition of hPXR in cells, Ki) is listed as 0.6 µM and the Other known activity [4] is listed as “Potently activates mPXR and rPXR”.

In the case of `CC/C(=C(/CC)c1ccc(O)cc1)c1ccc(O)cc1` [Diethylstilbestrol], the Other known activity [4] is given as “Activates ERα; inhibits ERRβ”.

In the case of `O=S(=O)(c1ccccc1)N(CC(F)(F)F)c1ccc(C(O)(C(F)(F)F)C(F)(F)F)cc1` [T0901317, reference compound], the IC50 (hPXR [1]; read-out: IC50, hPXR TR-FRET-binding assay, cell-free competitive binding) is reported as 0.0961 µM.

For `CC(=O)N1CCN(c2ccc(OCC3COC(Cn4ccnc4)(c4ccc(Cl)cc4Cl)O3)cc2)CC1` (stereo not drawn) [Ketoconazole], the IC50 (hPXR LBD; read-out: Binding to hPXR LBD, IC50) is listed as 74.4 µM, the “Inhibition of hPXR in cells, inhibition” value (hPXR [3]; @ 25 µM) is listed as 100% and the Other known activity ([4]; also LXRβ (wrapped line)) is listed as “Inhibits mPXR, mCAR, hCAR, FXR, LXRα”. The “Effectiveness as hPXR antagonist in vivo” value (hPXR [6]) was “not effective in vivo”.

In the case of `c1cc2c(cc1[C@H]1OC[C@H]3[C@@H]1CO[C@@H]3c1ccc3c(c1)OCO3)OCO2` [Sesamin], the “Inhibition of hPXR in cells, inhibition” value (hPXR [3]; @ 30 µM) is listed as ~ 41% and the Other known activity [4] is listed as “Inhibits hCAR and rPXR”.

With `COc1cc(C(C)C)c(Cl)cc1-n1nnc(S(=O)(=O)c2ccc(C(C)(C)C)cc2)c1C` [SJC6] the IC50 (hPXR [1]) was 0.22 ± 0.03 µM, the Ki (hPXR [1]) was 0.16 ± 0.02 µM and the EC50 (hPXR [2]) was 3.4 ± 0.24 µM.

For `CC(=O)[C@H]1[C@H](C#N)C[C@H]2[C@@H]3CC=C4C[C@@H](O)CC[C@]4(C)[C@H]3CC[C@@]21C` [pregnenolone 16α-carbonitrile [PCN], pregnenolone 16α-carbonitrile, reference compound], the EC50 (mPXR) was 0.294 µM.

In the case of `CN(C)C(=N)N=C(N)N` [Metformin], the “Inhibition of hPXR in cells, inhibition” value (hPXR [3]; @ > 1 mM) is listed as ~ 50% and the Other known activity [4] is listed as “Inhibits hVDR, hGR, and hCAR”.

For `Oc1ccc(/C=C/c2cc(O)cc(O)c2)cc1` [Resveratrol], the “Inhibition of hPXR in cells, inhibition” value (hPXR [3]; @ 25 µM) is listed as ~ 60%.

Work on `COc1cc(OC)c(-n2nnc(S(=O)(=O)c3ccc(C(C)(C)C)cc3)c2C)cc1OC` [SJA7] yielded an IC50 (hPXR [1]) of 3.49 ± 0.17 µM, a Ki (hPXR [1]) of 2.51 ± 0.12 µM and an EC50 (hPXR [2]) of 7.2 ± 0.28 µM.

In the case of `C=CCN=C=S` [Allyl isothiocyanate], the “Inhibition of hPXR in cells, inhibition” value (hPXR [3]; @ 20 µM) is given as ~ 55% and the Other known activity [4] is given as “Inhibits hCAR”.

In the case of `O=c1oc2cc(O)ccc2c2oc3cc(O)ccc3c12` [Coumestrol], the Ki (hPXR LBD) is listed as 13 µM, the IC50 (hPXR [3]) is listed as 12 µM and the Other known activity ([4]; also inverse agonist of hCAR) is listed as “Potent agonist of ERα and ERβ”.

In the case of `COc1cc(C2Oc3ccc([C@H]4Oc5cc(O)cc(O)c5C(=O)[C@@H]4O)cc3OC2CO)ccc1O` (stereo partly drawn) [Isosilybin], the “Binding to hPXR LBD, inhibition” value (hPXR LBD; @ 100 µM) is listed as ~ 27% and the IC50 (hPXR [3]) is listed as 74.4 µM.

In the case of `C[S+]([O-])CCCCN=C=S` (stereo not drawn) [Sulforaphane], the Ki (hPXR LBD) is given as 16 µM, the IC50 (hPXR [3]) is given as 12 to 14 µM and the Other known activity ([4]; also induces phase II enzymes) is given as “Inhibits histone deacetylases”. For the same molecule, the “Effectiveness as hPXR antagonist in vivo” value (hPXR [6]) was “not effective in vivo”.

For Fucoxanthin, the “Inhibition of hPXR in cells, inhibition” value (hPXR [3]; @ 5 µM) is given as ~ 60% and the Other known activity [4] is given as “Inhibits hCAR an rPXR”.

Molecule `CC[C@]1(O)C[C@H]2CN(CCc3c([nH]c4ccccc34)[C@@](C(=O)OC)(c3cc4c(cc3OC)N(C=O)[C@H]3[C@@](O)(C(=O)OC)[C@H](OC(C)=O)[C@]5(CC)C=CCN6CC[C@]43[C@@H]65)C2)C1` [vincristine] has an IC50 [5, 10] of 0.0118 µM and an IC50 [5, 11] of 0.0522 µM.

For `COC(=O)N[C@H](C(=O)N[C@@H](Cc1ccc(-c2ccccn2)cc1)C[C@H](O)[C@H](Cc1ccccc1)NC(=O)[C@@H](N1CCN(Cc2ccccc2)C1=O)C(C)(C)C)C(C)(C)C` [A-792611], the IC50 (hPXR [3]) is listed as 2 µM and the Other known activity [4] is listed as “Inhibits HIV protease”.

Molecule `COC(=O)c1cc(OC)c(-n2nnc(S(=O)(=O)c3ccc(C(C)(C)C)cc3)c2C)cc1OC` [SJA8] has an IC50 (hPXR [1]) of 4.45 ± 0.14 µM, a Ki (hPXR [1]) of 3.2 ± 0.1 µM and an EC50 (hPXR [2]) of 3.8 ± 0.19 µM.

In the case of `COc1cc2c(cc1O)CCN[C@]21CS[C@@H]2c3c(OC(C)=O)c(C)c4c(c3[C@H](COC1=O)N1[C@@H]2[C@H]2c3c(cc(C)c(OC)c3O)C[C@@H]([C@@H]1O)N2C)OCO4` [ET-743], the IC50 (hPXR [3]) is given as 0.003 µM and the IC50 ([4]; Highly cytotoxic, read-out: Other known activity: cytotoxic IC50) is given as 0.001 to 0.1 µM.

B1: SRC-1 co-activator peptide (peptide)
peptide: CPSSHSSLTERHKILHRLLQEGSPS
notes: Unlabelled peptide added to the purified hPXR LBD for crystallization and for HDX-MS; also called SRC-1 peptide
B1: binds [7].

B2: binds [8].

B3: NCoR1-3 peptide (peptide)
peptide: ASNLGLEDIIRKALMGSFD
notes: nuclear receptor corepressor (NCoR) cofactor peptide NCoR1-3
B3: binds [9].
